Measured values from patent publication US7842695B2, “Substituted pyrazole compounds” (Merck Patent GmbH, priority 2003, dated 2010).

Assays:
5-HT2A receptors = 5-HT2A receptors (UniProt P14842); test: in-vitro affinity to 5-HT2A receptors, [3H]ketanserine displacement (Example A1); type: binding
Description: The 5-HT2A receptors are exposed both to [^3H]ketanserine (a substance known for its affinity to the receptor) and also to the test compound. The decrease in the affinity of [^3H]ketanserine to the receptor is an indication of the affinity of the test substance to the 5-HT2A receptor.

5 HT2C receptor = target: T1, 5 HT2C receptor (Homo sapiens, UniProt P28335); test: affinity to the 5 HT2C receptor; type: binding
T1 sequence (P28335 33-458): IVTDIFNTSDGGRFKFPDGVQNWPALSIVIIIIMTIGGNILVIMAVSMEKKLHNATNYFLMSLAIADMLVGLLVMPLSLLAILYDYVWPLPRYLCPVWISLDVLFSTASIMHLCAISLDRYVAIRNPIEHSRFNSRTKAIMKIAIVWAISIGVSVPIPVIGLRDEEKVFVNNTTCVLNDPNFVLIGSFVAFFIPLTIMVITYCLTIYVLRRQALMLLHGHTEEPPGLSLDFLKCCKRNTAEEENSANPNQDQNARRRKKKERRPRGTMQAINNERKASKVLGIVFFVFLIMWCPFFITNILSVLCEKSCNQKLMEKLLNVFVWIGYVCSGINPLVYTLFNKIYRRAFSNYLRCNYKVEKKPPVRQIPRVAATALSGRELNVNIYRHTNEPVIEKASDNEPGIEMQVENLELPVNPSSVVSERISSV

| Compound | IC50 (5-HT2A receptors) | IC50 (5 HT2C receptor) |
| --- | --- | --- |
| CN1CCN(Cc2cnn(-c3ccc(-c4ccc(Cl)s4)cc3)c2-c2ccccc2F)CC1 [Example 589, 1-[1-[4-(5-Chlorothiophen-2-yl)phenyl]-5-(2-fluorophenyl)-1H-pyrazol-4-ylmethyl]-4-methylpiperazine] | 0.02 µM | 2.8 µM |
| CN1CCN(Cc2cnn(-c3ccc(-c4ccc(F)cc4)cn3)c2-c2ccco2)CC1 [Example 590, 1-{1-[5-(4-Fluorophenyl)pyridin-2-yl]-5-furan-2-yl-1H-pyrazol-4-ylmethyl}-4-methylpiperazine] | 0.02 µM | 1 µM |
| Fc1ccc(-c2ccc(-n3ncc(CN4CCN(C5CCCC5)CC4)c3-c3ccco3)nc2)cc1 [Example 591, 1-Cyclopentyl-4-{1-[5-(4-fluorophenyl)pyridin-2-yl]-5-furan-2-yl-1H-pyrazol-4-ylmethyl}piperazine] | 0.02 µM | 1 µM |
| COc1cccc(-c2c(CN(C)C)cnn2-c2ccc(-c3ccc(F)cc3)cc2)c1 [Example 592, [1-(4′-Fluorobiphenyl-4-yl)-5-(3-methoxyphenyl)-1H-pyrazol-4-ylmethyl]dimethylamine] | 0.02 µM | 0.51 µM |
| c1coc(-c2c(CN3CCNCC3)cnn2-c2ccc(-c3ccc4c(c3)OCCO4)cc2)c1 [Example 595, 1-{1-[4-(2,3-Dihydrobenzo-1,4-dioxin-6-yl)phenyl]-5-furan-2-yl-1H-pyrazol-4-ylmethyl}piperazine] | 0.022 µM | 0.15 µM |
| Cc1ccoc1-c1c(CN2CCC(O)C2)cnn1-c1ccc(-c2ccc(F)cc2)cc1 (stereo not shown) [Example 596, 1-[1-(4′-Fluorobiphenyl-4-yl)-5-(3-methyl-2-furanyl)-1H-pyrazol-4-ylmethyl]pyrrolidin-3-ol] | 0.022 µM | 1 µM |
| CCN1CCN(Cc2cnn(-c3ccc(-c4ccc5c(c4)OCCO5)cc3)c2-n2cccc2)CC1 [Example 600, 1-{1-[4-(2,3-Dihydrobenzo-1,4-dioxin-6-yl)phenyl]-5-pyrrol-1-yl-1H-pyrazol-4-ylmethyl}-4-ethylpiperazine] | 0.026 µM | 1 µM |
| CCN(CC)Cc1cnn(-c2ccc(-c3ccc(OC)cc3)cc2)c1-c1ccco1 [Example 601, Diethyl-[5-furan-2-yl-1-(4′-methoxybiphenyl-4-yl)-1H-pyrazol-4-ylmethyl]amine] | 0.026 µM | 1 µM |
| CCN(CC)Cc1cnn(-c2ccc(-c3ccc4c(c3)OCO4)cc2)c1-c1ccco1 [Example 602, [1-(4-Benzo-1,3-dioxol-5-ylphenyl)-5-furan-2-yl-1H-pyrazol-4-ylmethyl]diethylamine] | 0.026 µM | 0.61 µM |
| Fc1cccc(-c2ccc(-n3ncc(CN4CCN(C5CCCC5)CC4)c3-c3ccco3)cc2)c1 [Example 605, 1-Cyclopentyl-4-[1-(3′-fluorobiphenyl-4-yl)-5-furan-2-yl-1H-pyrazol-4-ylmethyl]piperazine] | 0.0268 µM | 2.94 µM |
| CCN(CC)Cc1cnn(-c2ccc(-c3cccc(F)c3)cc2)c1-c1ccco1 [Example 606, Diethyl-[1-(3′-fluorobiphenyl-4-yl)-5-furan-2-yl-1H-pyrazol-4-ylmethyl]amine] | 0.027 µM | 1 µM |
| COc1ccc(-c2c(CN3CCN(CCN(C)C)CC3)cnn2-c2ccc(-c3ccc(F)cc3)cc2)cc1 [Example 607, (2-{4-[1-(4′-Fluorobiphenyl-4-yl)-5-(4-methoxyphenyl)-1H-pyrazol-4-ylmethyl]-1-piperazinyl}ethyl)dimethylamine] | 0.029 µM | 1 µM |
| CN1CCN(Cc2cnn(-c3ccc(-c4ccsc4)cc3)c2-c2ccccc2)CC1 [Example 610, 1-Methyl-4-[5-phenyl-1-(4-thiophen-3-ylphenyl)-1H-pyrazol-4-ylmethyl]piperazine] | 0.031 µM | 0.49 µM |
| CCN1CCN(Cc2cnn(-c3ccc(-c4ccc(F)cc4)cc3)c2-n2cccc2)CC1 [Example 613, 1-Ethyl-4-[1-(4′-fluorobiphenyl-4-yl)-5-pyrrol-1-yl-1H-pyrazol-4-ylmethyl]piperazine] | 0.032 µM | 1 µM |
| OC1CCN(Cc2cnn(-c3ccc(-c4ccc(F)cc4)cn3)c2-c2ccco2)C1 (stereo not shown) [Example 614, 1-{1-[5-(4-Fluorophenyl)pyridin-2-yl]-5-furan-2-yl-1H-pyrazol-4-ylmethyl}pyrrolidin-3-ol] | 0.032 µM | 1 µM |
| OC1CCN(Cc2cnn(-c3ccc(-c4ccc(F)cc4)cc3)c2-c2cccc(Cl)c2)C1 (stereo not shown) [Example 618, 1-[5-(3-Chlorophenyl)-1-(4′-fluorobiphenyl-4-yl)-1H-pyrazol-4-ylmethyl]pyrrolidin-3-ol] | 0.033 µM | 1 µM |

| Compound | IC50 (5-HT2A receptors) | IC50 (5 HT2C receptor) |
| --- | --- | --- |
| CN1CCN(Cc2cnn(-c3ccc(-c4ccc(F)cc4)cc3)c2-c2cccc(Cl)c2)CC1 [Example 619, 1-[5-(3-Chlorophenyl)-1-(4′-fluorobiphenyl-4-yl)-1H-pyrazol-4-ylmethyl]-4-methylpiperazine] | 0.034 µM | 1 µM |
| CN1CCN(Cc2cnn(-c3ccc(-c4cc(F)c(OC(F)(F)F)c(F)c4)cc3)c2-c2ccccc2F)CC1 [Example 623, 1-[1-(3′,5′-Difluoro-4′-trifluoromethoxybiphenyl-4-yl)-5-(2-fluorophenyl)-1H-pyrazol-4-ylmethyl]-4-methylpiperazine] | 0.035 µM | 0.18 µM |
| CN1CCN(Cc2cnn(-c3ccc(-c4cc(F)ccc4F)cc3)c2-c2ccco2)CC1 [Example 624, 1-[1-(2′,5′-Difluorobiphenyl-4-yl)-5-furan-2-yl-1H-pyrazol-4-ylmethyl]-4-methylpiperazine] | 0.036 µM | 0.28 µM |
| Cc1ccc(-c2ccc(-n3ncc(CN4CCN(C)CC4)c3-c3ccccc3F)cc2)cc1F [Example 625, 1-[1-(3′-Fluoro-4′-methylbiphenyl-4-yl)-5-(2-fluorophenyl)-1H-pyrazol-4-ylmethyl]-4-methylpiperazine] | 0.036 µM | 0.62 µM |
| CN1CCN(Cc2cnn(-c3ccc(-c4ccc(N(C)C)cc4)cc3)c2-c2ccccc2F)CC1 [Example 626, {4′-[5-(2-Fluorophenyl)-4-(4-methylpiperazin-1-ylmethyl)pyrazol-1-yl]biphenyl-4-yl}dimethylamine] | 0.036 µM | 1 µM |
| CCN(CC)Cc1cnn(-c2ccc(-c3ccc4c(c3)OCCO4)cc2)c1-c1ccco1 [Example 630, {1-[4-(2,3-Dihydrobenzo-1,4-dioxin-6-yl)phenyl]-5-furan-2-yl-1H-pyrazol-4-ylmethyl}diethylamine] | 0.038 µM | 0.9 µM |
| Fc1ccc(-c2ccc(-n3ncc(CN4CCN(CCN5CCCC5)CC4)c3-c3ccco3)cc2)cc1 [Example 633, 1-[1-(4′-Fluorobiphenyl-4-yl)-5-furan-2-yl-1H-pyrazol-4-ylmethyl]-4-(2-pyrrolidin-1-ylethyl)piperazine] | 0.041 µM | 1 µM |
| CN1CCN(Cc2cnn(-c3ccc(-c4ccc(Oc5ccccc5)cc4)cc3)c2-c2ccccc2F)CC1 [Example 634, 1-[5-(2-Fluorophenyl)-1-(4′-phenoxybiphenyl-4-yl)-1H-pyrazol-4-ylmethyl]-4-methylpiperazine] | 0.041 µM | 0.97 µM |
| CN(C)CCN(C)Cc1cnn(-c2ccc(-c3ccc(F)cc3)cc2)c1-c1ccco1 [Example 635, N-[1-(4′-Fluorobiphenyl-4-yl)-5-furan-2-yl-1H-pyrazol-4-ylmethyl]-N,N′,N′-trimethylethane-1,2-diamine] | 0.041 µM | 1 µM |
| OC1CCN(Cc2cnn(-c3ccc(-c4ccc(F)cc4)cc3)c2-c2ccccc2Cl)C1 (stereo not shown) [Example 636, 1-[5-(2-Chlorophenyl)-1-(4′-fluorobiphenyl-4-yl)-1H-pyrazol-4-ylmethyl]pyrrolidin-3-ol] | 0.042 µM | 1 µM |
| CN(C)CCN(C)Cc1cnn(-c2ccc(-c3ccc(F)cc3)cc2)c1-c1cccc(Cl)c1 [Example 639, N-[5-(3-Chlorophenyl)-1-(4′-fluorobiphenyl-4-yl)-1H-pyrazol-4-ylmethyl]-N,N′,N′-trimethylethane-1,2-diamine] | 0.043 µM | 1 µM |
| CN1CCN(C(=O)c2cnn(-c3ccccc3)c2NC(=O)c2ccccc2F)CC1 [Example 640] | 0.044 µM | 1 µM |
| CN1CCN(Cc2cnn(-c3ccc(-c4cccn4C(=O)OC(C)(C)C)cc3)c2-c2ccccc2F)CC1 [Example 643, tert-Butyl 2-{4-[5-(2-fluorophenyl)-4-(4-methylpiperazin-1-ylmethyl)pyrazol-1-yl]phenyl}pyrrole-1-carboxylate] | 0.048 µM | 0.93 µM |
| COc1ccc(-c2ccc(-n3ncc(CN4CCN(C)CC4)c3-c3ccccc3F)cc2)cc1OC [Example 644, 1-[1-(3′,4′-Dimethoxybiphenyl-4-yl)-5-(2-fluorophenyl)-1H-pyrazol-4-ylmethyl]-4-methylpiperazine] | 0.049 µM | 1 µM |
| COc1ccccc1-c1c(CN2CCN(C)CC2)cnn1-c1ccc(-c2ccccc2F)cc1 [Example 647, 1-[1-(2′-Fluorobiphenyl-4-yl)-5-(2-methoxyphenyl)-1H-pyrazol-4-ylmethyl]-4-methylpiperazine] | 0.052 µM | 0.84 µM |
| CN(C)CCCN(C)Cc1cnn(-c2ccc(-c3ccc(F)cc3)cc2)c1-c1ccco1 [Example 659, N-[1-(4′-Fluorobiphenyl-4-yl)-5-furan-2-yl-1H-pyrazol-4-ylmethyl]-N,N′,N′-trimethylpropane-1,3-diamine] | 0.076 µM | 0.81 µM |
